We go through 1 molecule from paper PMC12646587, “Advanced cardiotoxicity profiling using field potential imaging with UHD-CMOS-MEA in human iPSC-derived cardiomyocytes” (Toxicological Sciences, 2025).

Data set [1] concerns human iPSC-derived cardiomyocytes. Description: Field potential imaging (FPI) with UHD-CMOS-MEA, acute drug treatment. It counts as cell-based. How it is done:
Cryopreserved iCell Cardiomyocytes (FUJIFILM Cellular Dynamics, Inc.) were handled according to the supplier’s instructions. Cells were thawed in a 37 °C water bath for approximately 3 min and resuspended in iCell Thawing Medium to prepare a cell suspension at a final concentration of 1 × 10^7 cells/ml. A total of 10 µl of the cell suspension (100,000 cells per chip) was seeded directly onto the fibronectin-coated electrode area of each chip. Chips were incubated at 37 °C for 1 h to allow cell attachment, after which 1 ml of maintenance medium was gently added. […] Thereafter, medium exchanges were performed twice weekly by replacing half the medium volume.
Compounds were dissolved in culture medium containing 0.1% DMSO and administered cumulatively at increasing concentrations. Drug solutions were applied directly to the culture wells, and measurements were initiated 30 min after administration. […] All recordings were performed under spontaneous beating conditions, with no external pacing applied.
Recordings were performed at a sampling rate of 2 kHz, with a 2-min recording duration per condition. Data acquisition was controlled via proprietary software (Sony Semiconductor Solutions), and all raw signals were stored for offline analysis. All experiments were conducted in a humidified environment at 37 °C with 5% CO2, ensuring physiological conditions during both drug exposure and recording.
Spikes from hiPSC-derived cardiomyocytes were initially detected at each electrode using a voltage threshold of ±100 µV via BinViewer software (SCREEN Holdings Co., Ltd, Japan). The resulting spike data were then processed using a custom MATLAB (MathWorks, Natick, MA) script to perform beat detection. Firing count histograms were generated using a bin size of 0.5 ms, and peak detection within these histograms identified the timing and propagation duration of beats across the electrode array. For each electrode, the maximum spike amplitude and its corresponding peak timing were calculated to generate heat maps of field potential amplitude and activation timing. […]

The test system of the next data set is NaV. Particulars: ref Yao and Tseng 1997; cited from earlier work.
Another data set has as its system hiPSC-CMs. Put plainly: Conventional MEA recording (16-electrode Axion Maestro), acute exposure. It counts as cell-based, human. The conditions noted are these: acute. The method, then: To enable comparison with the UHD-CMOS-MEA recordings, conventional extracellular field potential recordings were performed using 16-electrode MEA plates on a commercially available MEA system (Axion Maestro, Axion Biosystems), in accordance with the general principles of the CiPA initiative. hiPSC-CMs were cultured and maintained on the MEA plates under spontaneous beating conditions at 37 °C. Recordings were conducted after 10 to 14 DIV, and data acquisition and beat detection were performed using the built-in algorithms of the AxIS software (Axion Biosystems), without the use of external pacing. […] Each compound was applied under acute exposure conditions, and field potential recordings were obtained for 30 min following drug administration.
To evaluate the measurement capabilities of a conventional MEA system, the same set of 7 compounds was tested using the 16-electrode Axion Maestro platform.

For data set [2] the following is noted: ref Lee et al. 2025; cited from earlier work.
In a further data set the test system is CaV. The conditions noted are these: ref Yao and Tseng 1997; cited from earlier work.
The test system of a further data set is hERG. Particulars: read-out: IC50 hERG; ref Busch et al. 1998; cited from earlier work. In general terms: The hERG channel carries a current that helps repolarise heart muscle cells.
In data set [3] the test system is cardiomyocytes. Particulars: CTD90 ↑; ref Lu et al. 2019; cited from earlier work.
Data set [4] relates to cardiomyocytes. The conditions noted are these: FPDc10 (10% prolongation of FPDc); ref Nozaki et al. 2017; cited from earlier work.
Data set [5] concerns human iPSC-derived cardiomyocytes. Put plainly: PCA of beat parameters: cardiotoxicity risk and mechanism classification. It counts as cell-based. How it is done: Each parameter set was evaluated for its ability to separate cardiotoxic and non-cardiotoxic compounds while maintaining minimal variance among negative controls. […] To assess cardiotoxicity, PCA scores of test compounds were plotted in the PC space, and their positions were compared with the SD-defined zones of the negative control group. Risk levels were classified as follows: Low risk (within 1 SD), medium risk (between 1 and 2 SD), and high risk (beyond 2 SD). Dose-dependent cardiotoxicity potential was estimated based on displacement from the negative control cluster.
To establish a risk classification framework, the standard deviation (SD) range of negative control compounds in PCA space was used to define 3 zones: Within the SD range (low risk), between 1 and 2 SD (medium risk), and beyond 2 SD (high risk) (Fig. 6B). Risk levels derived from PCA distribution were compared with IC50 and Cmax values reported for each compound and associated ion channels (Table 5).

Another data set deals with IKs. Set-up: method as in Davies et al. 1996. Particulars: ref Davies et al. 1996; cited from earlier work.
[6] abbreviates: acute, statistically significant change vs before.

In the case of `CN1CCN(CCCCN2C(=O)CN(/N=C/c3ccc(-c4ccc(Cl)cc4)o3)C2=O)CC1` [Azimilide], in data set [1] (setting [6]), the “IBI (interbeat interval)” value was “increased and ↑”; the “IBI STV” value was “significantly elevated and ↑”. Moreover, the “BR (beat rate)” value in data set [1] (acute, statistically significant change vs before, arrows = direction, – = none) is “decreased and ↓”. In data set [1] (changed parameters in brackets in each cell), the “FPI (concentration at which changes were detected)” value is given as 1 (BR, IBI, IBI STV) μM. For the same molecule, the IC50 – broadly, the concentration at which inhibition is half-maximal – in the data set with NaV is 19 µM. Further, in the data set with hiPSC-CMs, the IBI result is recorded as “prolongation”, the beat frequency result was “consistent reductions”, the “field potential (spike) amplitude” value was “decreasing trend” and the “magnitude of change in propagation area” value is recorded as “less than 5%”. Besides, the propagation area entry in the data set with hiPSC-CMs is “statistically significant reduction”. In addition, in data set [2], the “Cmax Free” value was 0.07 ([Lee et al. 2025]) μM. Besides, the IC50 with CaV is 17.8 µM. The IC50 in the data set with hERG was 5.2 µM. Moreover, in the data set with cardiomyocytes [3], the HCA assay is 1.0 ([Lu et al. 2019]) (CTD90 ↑) µM. The MEA assay in the data set with cardiomyocytes [4] is 0.129 ([Nozaki et al. 2017]) (FPDc10) µM. In addition, the “FPI PCA (concentration at which changes were detected)” value in data set [5] was 1 µM. Moreover, the IC50 in the data set on IKs is 0.7 µM.
